Laboratory results: patent US12508216B2, “Process for the preparation of antimalassezia powder” (PRAJ INDUSTRIES LIMITED, priority 2022, dated 2025)
Converted amounts (≈) assume the structure as drawn. “Also recorded” adds a separate entry of the source. Read-outs that look alike come from different tables or passages of the source.

Key:
[1] = tested on: M. globosa; assay: MIC and MFC by broth microdilution technique; format: cell-based, Malassezia globosa; conditions: for MFC: first figure of MFC/MIC cell; for MIC: second figure of MFC/MIC cell
Description: (§1) The MIC of first extract and individual fractions (1-7) which were collected from RP-HPLC was calculated by ‘broth microdilution technique’ in 96-well microtiter plates. […] As a positive control, commercially used antifungal drug ketoconazole was used in concentrations ranging from 32 μg/mL to 0.0156 μg/mL. The plates were incubated at 30° C. for Malassezia spp and the results were recorded after 48 h and 7 days. The minimum inhibitory concentration (MIC) was measured as the lowest sample concentration that could inhibit the fungal growth.

[2] = tested on: M. furfur; assay: MIC and MFC by broth microdilution technique; format: cell-based, Malassezia furfur; conditions: for MFC: first figure of MFC/MIC cell; for MIC: second figure of MFC/MIC cell
Description: as §1

[3] = tested on: M. furfur; assay: Agar plate diffusion assay, zone of inhibition; format: cell-based, Malassezia furfur
Description: (§2) said first extract is analyzed for antifungal activity using agar plate diffusion assay and by time kill procedure. […] For time-kill procedure, the inoculum suspension of indicator strains of Malassezia (10^5 CFU/mL) is exposed to different concentration of First extract. Then, 50-μL aliquots is withdrawn at fixed intervals and evaluated. […] Said first extract is used further for down streaming to separate the antifungal peptides.
(§3) About 15 ml fraction which was obtained after anion exchange chromatography was lyophilized to get about 1500 mg of dry powder. About 50 mg was mixed with 1 ml sodium phosphate buffer and then said solution was injected to Scalar C18 column. The separation of the antifungal peptides was carried out by binary solvent gradient elution system comprising about 0.1% trifluoroacetic acid in HPLC grade deionized water (eluent A) and about 0.1% trifluoroacetic acid in acetonitrile (eluent B). The gradient program was as follows between: 0 to 20 min, 0-40% B, 20-30 min, 40 to 80% B, 30 to 35 min, 80 to 100% B, 35 to 45 min, 100 to 0% B at a flow rate of about 1.0 mL/min at 30° C., Six separate fractions were collected at retention times of 24.5, 28.2, 30.1, 32.2, 34.5 and 37.1 minutes and seventh fraction was collected from 38 to 43 minutes according to the absorption profile at 220 nm and 280 nm using the fraction collector and further freeze-dried. Individual fractions were labelled as 1, 2, 3, 4, 5, 6 and 7 in the order if increasing retention times, dissolved in sterile distilled water and then tested for their individual antifungal activity. […] And fraction 5 was not reported against M. furfur, M. globose species. For experiment the 0.1 M sodium phosphate buffer was used as a negative control and Ketoconazol was used as a positive control

[4] = tested on: M. globosa; assay: Agar plate diffusion assay, zone of inhibition; format: cell-based, Malassezia globosa
Description: as §2, §3

[5] = tested on: Malassezia indicator strains; assay: Agar plate diffusion assay, antifungal activity in words; format: cell-based; conditions: against Malassezia, compared among fractions 1-7
Description: as §2
About 15 ml fraction which was obtained after anion exchange chromatography was lyophilized to get about 1500 mg of dry powder. About 50 mg was mixed with 1 ml sodium phosphate buffer and then said solution was injected to Scalar C18 column. The separation of the antifungal peptides was carried out by binary solvent gradient elution system comprising about 0.1% trifluoroacetic acid in HPLC grade deionized water (eluent A) and about 0.1% trifluoroacetic acid in acetonitrile (eluent B). The gradient program was as follows between: 0 to 20 min, 0-40% B, 20-30 min, 40 to 80% B, 30 to 35 min, 80 to 100% B, 35 to 45 min, 100 to 0% B at a flow rate of about 1.0 mL/min at 30° C., Six separate fractions were collected at retention times of 24.5, 28.2, 30.1, 32.2, 34.5 and 37.1 minutes and seventh fraction was collected from 38 to 43 minutes according to the absorption profile at 220 nm and 280 nm using the fraction collector and further freeze-dried. […]

Molecule C14 Bacillomycin D [Fraction 2] has an MFC [1] greater than 228 µg/mL, an MIC [1] greater than 228 µg/mL and an MFC ([2]; M. furfur) greater than 228 µg/mL. It also gave an MIC ([2]; M. furfur) greater than 228 µg/mL, an MFC ([2]; first M. furfur column) greater than 228 µg/mL and an MIC ([2]; first M. furfur column) greater than 228 µg/mL. It also gave a Zone of inhibition [3] of 2 ± 0.45 mm and a Zone of inhibition [4] of 2 ± 0.42 mm.
C15 Bacillomycin D [Fraction 3] showed an MFC [1] greater than 228 µg/mL, an MIC [1] greater than 228 µg/mL and an MFC ([2]; M. furfur) greater than 228 µg/mL. The MIC ([2]; M. furfur) was greater than 228 µg/mL, the MFC ([2]; first M. furfur column) was greater than 228 µg/mL and the MIC ([2]; first M. furfur column) was greater than 228 µg/mL. The Zone of inhibition [3] was 3 ± 0.26 mm and the Zone of inhibition [4] was 2 ± 0.25 mm.
CC1CCCC=CC=CC(O)CC(O)CC=CC=CC(OC(=O)CCC(=O)O)CC=CC=CC(=O)O1 (stereo not drawn) [Fraction 6, 7-O-succinylmacrolactin A] gave an MFC [1] of 96 µg/mL (≈ 191 µM), an MIC [1] of 48 µg/mL (≈ 95.5 µM) and an MFC ([2]; M. furfur) of 96 µg/mL (≈ 191 µM). It also gave an MIC ([2]; M. furfur) of 48 µg/mL (≈ 95.5 µM), an MFC ([2]; first M. furfur column) of 96 µg/mL (≈ 191 µM) and an MIC ([2]; first M. furfur column) of 48 µg/mL (≈ 95.5 µM). The Zone of inhibition [3] was 6 ± 0.7 mm, the Zone of inhibition [4] was 7 ± 0.65 mm and the “antifungal activity of individual fractions in words” value [5] was “strongest anti-fungal activity; also recorded: strongest antifungal activity”.
In the case of CC(=O)N1CCN(c2ccc(OCC3COC(Cn4ccnc4)(c4ccc(Cl)cc4Cl)O3)cc2)CC1 (stereo not drawn) [Ketoconazole, reference compound], the MFC ([1]; Malassezia globosa, read-out: MFC) is reported as 0.08 µg/mL (≈ 0.151 µM), the MIC ([1]; Malassezia globosa, read-out: MIC) is reported as 0.03 µg/mL (≈ 0.0565 µM) and the MFC ([2]; M. furfur) is reported as 0.1 µg/mL (≈ 0.188 µM). The MIC ([2]; M. furfur) was 0.03 µg/mL (≈ 0.0565 µM), the MFC ([2]; Malassezia furfur, first M. furfur column, read-out: MFC) was 0.1 µg/mL (≈ 0.188 µM) and the MIC ([2]; Malassezia furfur, first M. furfur column, read-out: MIC) was 0.03 µg/mL (≈ 0.0565 µM). It also gave a Zone of inhibition [3] of 12 ± 0.65 mm and a Zone of inhibition [4] of 11 ± 0.64 mm.
For C[C@@H]1CCC/C=C/C=C/[C@H](O)C[C@@H](O)C/C=C\C=C\[C@@H](O)C/C=C/C=C\C(=O)O1 [Fraction 5, Macrolactin A], the MFC [1] was 275 µg/mL (≈ 683 µM), the MIC [1] was 138 µg/mL (≈ 343 µM) and the MFC ([2]; M. furfur) was 330 µg/mL (≈ 820 µM). The MIC ([2]; M. furfur) was 165 µg/mL (≈ 410 µM), the MFC ([2]; first M. furfur column) was 313 µg/mL (≈ 778 µM) and the MIC ([2]; first M. furfur column) was 156 µg/mL (≈ 388 µM). The Zone of inhibition [3] was 2 ± 0.77 mm, the Zone of inhibition [4] was 2 ± 0.69 mm and the “antifungal activity of individual fractions in words” value [5] was “strongest anti-fungal activity”.
With C16 Bacillomycin D [Fraction 4] the MFC [1] was greater than 228 µg/mL, the MIC [1] was greater than 228 µg/mL and the MFC ([2]; M. furfur) was greater than 228 µg/mL. For the same molecule, the MIC ([2]; M. furfur) was greater than 228 µg/mL, the MFC ([2]; first M. furfur column) was greater than 228 µg/mL and the MIC ([2]; first M. furfur column) was greater than 228 µg/mL.
